Measured values published in patent publication US12612391B2, “Cromolyn derivatives and uses thereof” (The General Hospital Corporation, priority 2020, dated 2026).

System: BV2-CD33^WT cells
Test: Aβ42 uptake in microglial BV2-CD33^WT cells (Aβ42-specific ELISA of cell lysates)
Format: cell-based
Details: 100 μM; BV2-CD33 activated microglial cells; 3 hours pre-treatment, then 2 hours with Aβ42 peptide; vs DMSO control; FIG. 2
Description: FIG. 2 is a plot showing Aβ42 uptake in microglial BV2-CD33^WT cells treated with DMSO as control or cromolyn derivatives (C1, C3-8) at different concentrations for 3 hours. Afterwards, cells were incubated with DMSO or cromolyn derivatives in the presence of the Aβ42 peptide for additional 2 hours. Cell lysates were analyzed for intracellular levels of Aβ42 using an Aβ42-specific ELISA kit.

In the case of CC(=O)OCc1cc(=O)c2c(OCC(COc3cccc4oc(COC(C)=O)cc(=O)c34)OC(C)=O)cccc2o1 [Compound C7, Ac-Triol- Cromolyn], the “microglial uptake of Aβ42” value is reported as “positive impact”.
